Experimental data from PubChem BioAssay (NCI).
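Cultured in 96-well plates, cells were exposed to test compound for 48 hours across five concentrations. The concentration for full growth arrest is given as TGI.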

Experiments:
Assay in all cases: inhibition of tumour cell growth, NCI panel, 48 h
786-0 renal = system: 786-0 renal
A498 renal = system: A498 renal
A549 NSCLC = system: A549 NSCLC
ACHN renal = system: ACHN renal
BT-549 breast = system: BT-549 breast
CAKI-1 renal = system: CAKI-1 renal
CCRF-CEM leukemia = system: CCRF-CEM leukemia
COLO 205 colon = system: COLO 205 colon
DU-145 prostate = system: DU-145 prostate
EKVX NSCLC = system: EKVX NSCLC
HCT-116 colon = system: HCT-116 colon
HCT-15 colon = system: HCT-15 colon
HL-60(TB) leukemia = system: HL-60(TB) leukemia
HOP-62 NSCLC = system: HOP-62 NSCLC
HOP-92 NSCLC = system: HOP-92 NSCLC
HS 578T breast = system: HS 578T breast
HT29 colon = system: HT29 colon
IGROV1 ovarian = system: IGROV1 ovarian
K-562 leukemia = system: K-562 leukemia
KM12 colon = system: KM12 colon
LOX IMVI melanoma = system: LOX IMVI melanoma
M14 melanoma = system: M14 melanoma
MALME-3M melanoma = system: MALME-3M melanoma
MCF7 breast = system: MCF7 breast
MDA-MB-435 = system: MDA-MB-435
MDA-N = system: MDA-N
MOLT-4 leukemia = system: MOLT-4 leukemia
NCI-H226 lung = system: NCI-H226 lung
NCI-H23 lung = system: NCI-H23 lung
NCI-H460 lung = system: NCI-H460 lung
NCI-H522 lung = system: NCI-H522 lung
NCI/ADR-RES ovarian = system: NCI/ADR-RES ovarian
OVCAR-3 ovarian = system: OVCAR-3 ovarian
OVCAR-4 ovarian = system: OVCAR-4 ovarian
OVCAR-5 ovarian = system: OVCAR-5 ovarian
OVCAR-8 ovarian = system: OVCAR-8 ovarian
PC-3 prostate = system: PC-3 prostate
RPMI-8226 leukemia = system: RPMI-8226 leukemia
RXF 393 renal = system: RXF 393 renal
SF-268 CNS = system: SF-268 CNS
SF-295 CNS = system: SF-295 CNS
SF-539 CNS = system: SF-539 CNS
SK-MEL-2 melanoma = system: SK-MEL-2 melanoma
SK-MEL-5 melanoma = system: SK-MEL-5 melanoma
SK-OV-3 ovarian = system: SK-OV-3 ovarian
SN12C renal = system: SN12C renal
SNB-19 CNS = system: SNB-19 CNS
SNB-75 CNS = system: SNB-75 CNS
SR leukemia = system: SR leukemia
SW-620 colon = system: SW-620 colon
T-47D breast = system: T-47D breast
TK-10 renal = system: TK-10 renal
U251 CNS = system: U251 CNS
UACC-257 melanoma = system: UACC-257 melanoma
UACC-62 melanoma = system: UACC-62 melanoma
UO-31 renal = system: UO-31 renal
HCC-2998 colon = system: HCC-2998 colon
MDA-MB-231 breast = system: MDA-MB-231 breast
SK-MEL-28 melanoma = system: SK-MEL-28 melanoma

Work on `CCOC(=O)CCC(C(=O)OCC)n1nnc2ccc(Nc3c(C)[n+]([O-])c4ccc(Cl)cc4[n+]3[O-])cc21` (centres undefined) yielded a TGI (786-0 renal) greater than 100 µM, a TGI (A498 renal) greater than 100 µM and a TGI (A549 NSCLC) greater than 100 µM. It also gave a TGI (ACHN renal) greater than 100 µM, a TGI (BT-549 breast) greater than 100 µM and a TGI (CAKI-1 renal) greater than 100 µM. The TGI (CCRF-CEM leukemia) was greater than 100 µM, the TGI (COLO 205 colon) was greater than 100 µM and the TGI (DU-145 prostate) was greater than 100 µM. The TGI (EKVX NSCLC) was 69.3 µM, the TGI (HCT-116 colon) was greater than 100 µM and the TGI (HCT-15 colon) was greater than 100 µM. The TGI (HL-60(TB) leukemia) was greater than 100 µM, the TGI (HOP-62 NSCLC) was greater than 100 µM and the TGI (HOP-92 NSCLC) was greater than 100 µM. The TGI (HS 578T breast) was greater than 100 µM, the TGI (HT29 colon) was greater than 100 µM and the TGI (IGROV1 ovarian) was greater than 100 µM. It also gave a TGI (K-562 leukemia) greater than 100 µM, a TGI (KM12 colon) greater than 100 µM and a TGI (LOX IMVI melanoma) greater than 100 µM. For the same molecule, the TGI (M14 melanoma) was greater than 100 µM, the TGI (MALME-3M melanoma) was greater than 100 µM and the TGI (MCF7 breast) was 50.4 µM. For the same molecule, the TGI (MDA-MB-435) was greater than 100 µM, the TGI (MDA-N) was greater than 100 µM and the TGI (MOLT-4 leukemia) was greater than 100 µM. For the same molecule, the TGI (NCI-H226 lung) was 83.7 µM, the TGI (NCI-H23 lung) was greater than 100 µM and the TGI (NCI-H460 lung) was greater than 100 µM. The TGI (NCI-H522 lung) was greater than 100 µM, the TGI (NCI/ADR-RES ovarian) was greater than 100 µM and the TGI (OVCAR-3 ovarian) was greater than 100 µM. The TGI (OVCAR-4 ovarian) was greater than 100 µM, the TGI (OVCAR-5 ovarian) was greater than 100 µM and the TGI (OVCAR-8 ovarian) was greater than 100 µM. For the same molecule, the TGI (PC-3 prostate) was greater than 100 µM, the TGI (RPMI-8226 leukemia) was 88.3 µM and the TGI (RXF 393 renal) was greater than 100 µM. It also gave a TGI (SF-268 CNS) greater than 100 µM, a TGI (SF-295 CNS) greater than 100 µM and a TGI (SF-539 CNS) greater than 100 µM. It also gave a TGI (SK-MEL-2 melanoma) greater than 100 µM, a TGI (SK-MEL-5 melanoma) greater than 100 µM and a TGI (SK-OV-3 ovarian) greater than 100 µM. The TGI (SN12C renal) was greater than 100 µM, the TGI (SNB-19 CNS) was greater than 100 µM and the TGI (SNB-75 CNS) was greater than 100 µM. The TGI (SR leukemia) was greater than 100 µM, the TGI (SW-620 colon) was greater than 100 µM and the TGI (T-47D breast) was greater than 100 µM. The TGI (TK-10 renal) was greater than 100 µM, the TGI (U251 CNS) was greater than 100 µM and the TGI (UACC-257 melanoma) was 37.1 µM. It also gave a TGI (UACC-62 melanoma) greater than 100 µM and a TGI (UO-31 renal) greater than 100 µM.
Molecule `COC(=O)CCCC(=O)NC1=C(Nc2ccc(OC)cc2)C(=O)c2ccccc2C1=O` has a TGI (786-0 renal) greater than 100 µM, a TGI (A498 renal) of 84.4 µM and a TGI (A549 NSCLC) of 42.7 µM. It also gave a TGI (ACHN renal) of 91.5 µM, a TGI (BT-549 breast) of 35.4 µM and a TGI (CAKI-1 renal) greater than 100 µM. The TGI (CCRF-CEM leukemia) was 58.2 µM, the TGI (COLO 205 colon) was greater than 100 µM and the TGI (DU-145 prostate) was 31.7 µM. It also gave a TGI (EKVX NSCLC) of 51.3 µM, a TGI (HCC-2998 colon) greater than 100 µM and a TGI (HCT-116 colon) of 43.2 µM. For the same molecule, the TGI (HCT-15 colon) was 89 µM, the TGI (HL-60(TB) leukemia) was 54.5 µM and the TGI (HOP-92 NSCLC) was greater than 100 µM. For the same molecule, the TGI (HS 578T breast) was 57.8 µM, the TGI (IGROV1 ovarian) was 36.8 µM and the TGI (K-562 leukemia) was 70.1 µM. For the same molecule, the TGI (KM12 colon) was greater than 100 µM, the TGI (LOX IMVI melanoma) was 92.8 µM and the TGI (M14 melanoma) was 33.7 µM. It also gave a TGI (MALME-3M melanoma) of 13.5 µM, a TGI (MCF7 breast) of 35.4 µM and a TGI (MDA-MB-231 breast) of 82.9 µM. It also gave a TGI (MDA-MB-435) of 32.1 µM, a TGI (MDA-N) of 41.2 µM and a TGI (MOLT-4 leukemia) of 60.4 µM. For the same molecule, the TGI (NCI-H23 lung) was 51.5 µM, the TGI (NCI-H460 lung) was 36.6 µM and the TGI (NCI-H522 lung) was greater than 100 µM. The TGI (NCI/ADR-RES ovarian) was 71.1 µM, the TGI (OVCAR-3 ovarian) was 31.3 µM and the TGI (OVCAR-4 ovarian) was 34.6 µM. It also gave a TGI (OVCAR-5 ovarian) of 33.2 µM, a TGI (OVCAR-8 ovarian) greater than 100 µM and a TGI (RPMI-8226 leukemia) greater than 100 µM. It also gave a TGI (SF-268 CNS) greater than 100 µM, a TGI (SF-295 CNS) of 88.4 µM and a TGI (SF-539 CNS) of 36.1 µM. For the same molecule, the TGI (SK-MEL-2 melanoma) was 37.8 µM, the TGI (SK-MEL-28 melanoma) was 44.9 µM and the TGI (SK-OV-3 ovarian) was 82.6 µM. For the same molecule, the TGI (SN12C renal) was 74.2 µM, the TGI (SNB-19 CNS) was greater than 100 µM and the TGI (SNB-75 CNS) was 65.6 µM. For the same molecule, the TGI (SR leukemia) was greater than 100 µM, the TGI (SW-620 colon) was greater than 100 µM and the TGI (T-47D breast) was greater than 100 µM. For the same molecule, the TGI (TK-10 renal) was greater than 100 µM, the TGI (U251 CNS) was 80.9 µM and the TGI (UACC-257 melanoma) was 36.1 µM. For the same molecule, the TGI (UACC-62 melanoma) was 25.3 µM and the TGI (UO-31 renal) was greater than 100 µM.
